For one series, the system named is production of PGE2. The series is described as follows: Inhibition of PGE2 production in IL-1β-stimulated A549 cells (EIA). The format is cell-based. Conditions: Homo sapiens, IL-1β 1 ng/ml, 22 hours. From the text:
(§1) This test allows evaluation of the inhibitory capacity on the production of the PGE2 and the selectivity relative to the production of the PGF2α.
(§2) The cell line A549, human pulmonary adenocarcinoma, was used, which is particularly sensitive to stimulation with pro-inflammatory cytokines, for instance IL-1β, and, in response to this stimulation, is particularly active in the production and release of two prostanoids: PGE2 and PGF2α (Thoren S. Jakobsson P-J, 2000).
(§3) The cells were stimulated with IL-1β (1 ng/ml) and simultaneously treated with the test compound for 22 hours in an appropriate culture medium (DMEM—Dulbecco's Modified Eagle's Medium) supplemented with 5% foetal calf serum and L-glutamine (4 mM final) in an incubator at 37° C. and at a CO2 concentration of 5%.
(§4) After the incubation, the amount of PGE2 and PGF2α produced and released into the supernatant were assayed using an EIA kit (produced and sold by Cayman Chemicals, Ann Arbor, Mich., USA).
(§5) The comparative compound used was indomethacin at a concentration of 10 nM (Sigma-Aldrich), a non-steroidal anti-inflammatory drug that inhibits in equal measure both PGE2 and PGF2α.
(§6) The results, expressed as the IC50 values, i.e. as the concentration of compound that inhibits 50% of the production of PGE2 and of PGF2α relative to the cells that have been stimulated, but not treated with the same compound, are given in Table 2. The inactivity or the reduced activity of the compound on the biosynthesis of PGF2α is an indication of selectivity towards the production of PGE2 and thus of selective inhibition of mPGES-1.

Another series relates to production of PGF2α. The series is described as follows: Inhibition of PGF2α production in IL-1β-stimulated A549 cells (EIA). The class given is cell-based. Conditions: Homo sapiens, IL-1β 1 ng/ml, 22 hours.
Text: as §1, §2, §3, §4, §5, §6

The next series concerns mice. The series can be described thus: Acetic acid-induced writhing in mice. The class given is in vivo. Conditions: for No. of writhes: 20 minutes after acetic acid; for % of inhibition: writhes vs vehicle. Here is the method: The test compound was evaluated in the model of acetic acid-induced writhing in mice (Stock J. L. et al., J. Clin. Inv. 2001, 107: 325-331). This test allows evaluation of the antinociceptive activity of the compounds of the invention in a model of inflammatory pain.
Female CD-1 mice weighing 25-30 g were used for the test. The animals were treated intraperitoneally with the test compound (0.1-10 mg/kg) suspended in methylcellulose (MTC). The control animals were treated with the vehicle alone (MTC) via the same route.
Half an hour after the treatment, an intraperitoneal injection of acetic acid (0.7% v/v in physiological saline, 16 μl/g of body weight) was given to the animals to induce inflammatory pain and to check the effects of the test compound on the nociceptive response.
Immediately after the administration of acetic acid and for the following 20 minutes the number of writhes was measured, which represents the parameter for evaluation of the nociceptive response.

A short description of series [1]: Metabolic stability in rat hepatic microsomes. The conditions noted are these: Sprague-Dawley, rat, microsomes, 1 h, 1 μM, pH 7.4. On the procedure: (§7) This test allows evaluation of the metabolic stability of the compounds of the invention and of the comparative compounds in rats and in man.
(§8) The compounds to be analysed, at a final concentration of 0 and 1 μM, were placed in a suspension containing the pool of microsomes at a final concentration of 0.5 mg/mL in a final volume of 200 μL, in 96-well plates. The test was standardized with phosphate buffer (75 mM, pH 7.4) and with the NADPH regenerating system (MgCl2: 3.3 mM; G6P: 3.3 mM; G6PD: 0.4 U/mL; NADP+: 1.3 mM). […] The samples were incubated at 37° C. in a humidified incubator. At time 0 and after 60 minutes, 100 μL of acetonitrile containing the internal standard (0.2 μM of metoprolol and 0.4 μM of diclofenac) were added to stop the reaction.
(§9) The samples were centrifuged before analysis. The HPLC/MS/MS analysis was performed using an electrospray ion source in positive ionization and SRM (Single Reaction Mode). The chromatographic conditions entail the use of an XDB-C18 column (2.1×50 mm, Agilent) and a gradient from 5% to 91% of acetonitrile in water containing 0.1% formic acid (total runtime equal to 6 minutes); the flow rate was 0.5 ml/minute.
(§10) The areas of the peaks for the test compounds were integrated and the results expressed as the analyte area/internal standard (PAR) area ratio. For each time, two samples were analysed and the mean value calculated. The percentage of the value of remaining compound was calculated as: % unmetabolized compound=100*(mean PARTfinal/mean PART0).

The nature of series [2]: Metabolic stability in human hepatic microsomes. The conditions noted are these: human, microsomes, 1 h, 1 μM, pH 7.4. Here is the method:
as §7, §8, §9, §10

The next series is described as follows: in vitro. The conditions noted are these: human, Caco-2, pH 7.4. On the procedure: This test allows evaluation of the amount absorbed by the intestinal barrier of the compounds of the invention and of the comparative compounds using the Caco-2 cell line as an in vitro model of intestinal barrier. The permeability test on Caco-2 cells represents an in vitro system approved for predicting and estimating the in vivo intestinal absorption of a drug. When the Caco-2 cells are cultured on a porous filter for about 21 days, they have the capacity to differentiate into enterocytes.
The compounds undergoing the test were diluted from a 10 mM stock solution in HBSS to a final concentration of 10 μM. The system consisted of a confluent cellular monolayer in culture for 21-28 days.
Each compound was tested in triplicate, bidirectionally, at pH 7.4, from the apical to the basolateral compartment (A→B) and from the basolateral to the apical compartment (B→A).
The samples collected at the given time were analysed by HPLC-MS/MS, using an electrospray ion source in positive ionization and SRM (Single Reaction Mode). The chromatographic conditions entailed the use of an XDB-C18 column (2.1×50 mm, Agilent) with a gradient from 5% to 91% of acetonitrile in water containing 0.1% formic acid (total runtime equal to 6.5 minutes) and a flow rate of 0.5 ml/minute. Metoprolol was used as the internal standard.
The concentration data were used to calculate the apparent permeability values (Papp), and the mean and standard deviation of the Papp were calculated.
The flux ratio was calculated as Papp(B→A)/Papp(A→B). The recovery percentage was calculated as: (amount in the receiving compartment+amount in the donor compartment)/nominal amount
The area of the peaks of the test compounds were integrated and the results were expressed as the analyte area/internal standard area ratio and corrected for the dilution factor used during the preparation of the sample. The apparent permeability coefficients were calculated using the following equation: […]
in which: • VA volume in the receiving well (0.25 mL for the test from A→B, 0.075 mL for the test from B→A) • Area area of the membrane surface (0.11 cm^2) • Time total transport time (3600 seconds)

The nature of series [3]: In vivo bioavailability, oral cassette dosing. The conditions noted are these: oral 5 mg/kg. Here is the method: This test allowed evaluation of the in vivo bioavailability of the compounds of the invention, thus making it possible to evaluate and compare the pharmacokinetic profile of the test compounds.
The tests were performed using the cassette method, i.e. by administering orally several products simultaneously to the same animal, at a dose of 5 mg/kg. The products were suspended in methylcellulose (MTC). The treated animals were catheterized for the serial collection of blood samples performed by means of an automatic sampling system. The plasmatic concentrations of the products were measured by HPLC/MS/MS. The profiles of the plasmatic concentrations over time made it possible to evaluate the relative bioavailability of the test products in terms of rate (tmax and Cmax) and […] (AUC). The slope of the curve in the end portion also allowed a comparative evaluation of the rate of elimination of the compounds from the plasma, the slower the rate, the lower the slope. Three animals were treated for each combination of compounds.
The results, expressed as the Cmax, i.e. as the maximum concentration of drug reached in the plasma, Tmax, i.e. the time required to reach the maximum drug concentration in the plasma, and AUC0-7, i.e. the area under the curve of the plasmatic concentrations of drug over time, measured in the first seven hours after administration, are given in Table 5.

Regarding `O=C(Nc1ccc2c(c1)c1ccccc1n2CCO)c1ccccc1C(F)(F)F` [Compound 1, N-[9-(2-hydroxyethyl)-9H-carbazol-3-yl]-2-(trifluoromethyl)benzamide], the melting point is 176 to 177 °C. In addition, in the series with production of PGE2, the IC50 stood at 2.9 µM. The compound further displayed a half-inhibitory concentration (IC50) in the series with production of PGF2α of more than 100 µM. In the series on mice (0.1 mg/kg intraperitoneally), the No. of writhes was 38.4 ± 3.99 and the “% of inhibition” value is on record as 21%. In addition, in the series with mice (1 mg/kg intraperitoneally), the No. of writhes is 31.5 ± 5.72 and the “% of inhibition” value is listed as 35%. For the same compound, in the series with mice (10 mg/kg intraperitoneally), the No. of writhes is 12.8 ± 2.46 and the “% of inhibition” value was found to be 74%. Further, the “% unmetabolized compound, Rat” value in series [1] was determined as 58%. Moreover, the “% unmetabolized compound, Man” value in series [2] stood at 81%. The Papp at 3600 seconds, 10 μM in “in vitro” is more than 20 ×10⁻⁶ cm/s. For the same compound, the “bioavailability / absorption in words” value in series [3] was “good bioavailability characteristics”. Also, in series [3] (plasma), the maximum concentration (Cmax) is 1200 ng/mL and the Tmax was found to be 1.5 h. For the same compound, the AUC(0-t) in series [3] (plasma, first seven hours, read-out: AUC0-7) turned out to be 5750 ng·h/mL.

The values are drawn from patent publication US9249097B2, “3-aminocarbazole compound, pharmaceutical composition containing it and preparation method therefor” (AZIENDE CHIM. RIUN. ANG. FRANC. A.C.R.A.F. S.p.A., priority 2008, dated 2016).
